From ChEMBL document CHEMBL6121044, “Discovery of Novel Spirocyclic MAT2A Inhibitors Demonstrating High In Vivo Efficacy in MTAP-Null Xenograft Models” (J Med Chem, 2025)

Columns and labels:
[1] = molecular target: S-adenosylmethionine synthase isoform type-2 (Homo sapiens, UniProt P31153); experiment: Inhibition of MAT2A (unknown origin) assessed as release of inorganic phosphate using ATP/L-methionine pre-incubated for 30 mins followed by substrate addition measured after 2.5 hrs by colorimetric assay
[2] = Lipophilicity, log D of compound at pH 7.4 byHPLC method; format: physicochemical; details: buffer
HCT-116 [3] = experiment: Antiproliferative activity against MTAP-knock out human HCT-116 cells assessed as proliferation inhibition rate measured after 5 days by CTG assay; format: functional, cell-based; details: HCT-116, 120 h
HCT-116 [4] = experiment: Antiproliferative activity against MTAP-knock out human HCT-116 cells assessed as maximal inhibition rate at 10 uM measured after 5 days by CTG assay relative to control; format: functional; details: time 5 day
[5] = Microsomal metabolic stability in human liver microsomes assessed as clearance; format: ADME, Microsome; details: read-out: CLH
[6] = Microsomal metabolic stability in mouse liver microsomes assessed as clearance; format: ADME, Microsome; details: read-out: CLH
[7] = Volume of distribution at steady state in male ICR mouse at 10 mg/kg, po and 2 mg/kg, iv measured upto 24 hrs; format: ADME, organism-based; details: in vivo
[8] = Half life in male ICR mouse at 10 mg/kg, po and 2 mg/kg, iv measured upto 24 hrs; format: ADME, organism-based; details: in vivo
[9] = Clearance in male ICR mouse at 10 mg/kg, po and 2 mg/kg, iv measured upto 24 hrs; format: ADME, organism-based; details: in vivo
[10] = AUC (0 to infinity) in male ICR mouse at 10 mg/kg, po and 2 mg/kg, iv measured upto 24 hrs; format: ADME, organism-based; details: in vivo

Sequence of S-adenosylmethionine synthase isoform type-2 (P31153 whole entry, canonical isoform): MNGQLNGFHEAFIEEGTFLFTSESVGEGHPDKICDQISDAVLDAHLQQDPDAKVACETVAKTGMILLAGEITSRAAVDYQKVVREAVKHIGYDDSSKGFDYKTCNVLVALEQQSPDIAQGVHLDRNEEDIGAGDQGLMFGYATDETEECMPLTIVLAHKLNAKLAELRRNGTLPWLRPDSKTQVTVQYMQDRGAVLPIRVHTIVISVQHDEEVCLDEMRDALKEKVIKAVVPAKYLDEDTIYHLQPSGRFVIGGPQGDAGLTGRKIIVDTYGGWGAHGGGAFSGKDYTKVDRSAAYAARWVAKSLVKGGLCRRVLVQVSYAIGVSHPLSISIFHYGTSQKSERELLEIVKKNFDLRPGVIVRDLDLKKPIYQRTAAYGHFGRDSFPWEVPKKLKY

SMILES | IC50 [1] [nM] | logD [2] | IC50 (HCT-116 [3]) [nM] | Imax (HCT-116 [4]) [%] | CLint scaled [5] [mL/min/kg] | CLint scaled [6] [mL/min/kg] | Vdss [7] [L/kg] | half-life [8] [h] | clearance [9] [mL/min/kg] | AUC(0-inf) [10] [ng·h/mL]
C=C(c1ccc2c(c1)C1(CCc3ncccc31)C(=O)N=C2NC)C(F)(F)F (stereo not drawn) | 64 | 2.4 | – | – | – | – | – | – | – | –
CNC1=NC(=O)C2(CCc3ncccc32)c2cc(C3CC3)cc(F)c21 (stereo not drawn) | 13 | 2.21 | 240 | 78.29 | – | – | – | – | – | –
CNC1=NC(=O)C2(CCc3ncccc32)c2cc(C(C)(F)F)ccc21 (stereo not drawn) | 9 | 1.57 | 101 | 100 | < 9.3 | 55 | – | – | – | –
CNC1=NC(=O)C2(COc3ccccc32)c2nc(C(F)(F)F)ccc21 (stereo not drawn) | 115 | – | 5080 | 51.99 | – | – | – | – | – | –
CNC1=NC(=O)C2(CC(C)(C)c3ccccc32)c2nc(C(F)(F)F)ccc21 (stereo not drawn) | 78 | – | > 10000 | – | – | – | – | – | – | –
CNC1=NC(=O)C2(CCc3cc(F)ccc32)c2nc(C(F)(F)F)ccc21 (stereo not drawn) | 33 | – | 4710 | 55.77 | < 9.3 | 71.6 | – | – | – | –
CNC1=NC(=O)C2(OCc3ccccc32)c2nc(C(F)(F)F)ccc21 (stereo not drawn) | > 3000 | – | – | – | – | – | – | – | – | –
CNC1=NC(=O)C2(Cc3ccccc3C2)c2nc(C(F)(F)F)ccc21 | 55 | – | – | – | – | – | – | – | – | –
[2H]C([2H])([2H])NC1=NC(=O)[C@]2(CCc3ncccc32)c2cc(C3CC3)c(F)cc21 | 4 | 2.2 | 49 | 77 | < 9.3 | 38.9 | 1.02 | 2.1 | 11.4 | 12300
CNC1=NC(=O)C2(CCc3ncccc32)c2cc(C3CC3)c(F)cc21 (stereo not drawn) | 4 | 2.24 | 83 | 84.78 | < 9.3 | 38.9 | – | – | – | –
CNC1=NC(=O)C2(CCc3ncccc32)c2cc(C=C(F)F)ccc21 (stereo not drawn) | 16 | 1.95 | 2440 | 96.49 | – | – | – | – | – | –
CNC1=NC(=O)C2(CCc3cccnc32)c2nc(C(F)(F)F)ccc21 (stereo not drawn) | 591 | – | – | – | – | – | – | – | – | –
CNC1=NC(=O)C2(CCc3c(Br)cccc32)c2nc(C(F)(F)F)ccc21 (stereo not drawn) | 18 | – | – | – | – | – | – | – | – | –
CNC1=NC(=O)C2(CCc3ncccc32)c2cc(C3CC3)ncc21 (stereo not drawn) | 47 | 1.1 | 1060 | 79.52 | – | – | – | – | – | –
COC1(C(=O)N2Cc3nc(Cl)nc(N[C@H](C)c4cc(N)cc(C(F)(F)F)c4)c3C2)CCOCC1 | – | – | – | – | < 9.3 | < 9.3 | – | – | – | –
CNC1=NC(=O)C(C)(c2ccccc2)c2nc(C(F)(F)F)ccc21 (stereo not drawn) | 57 | – | – | – | – | – | – | – | – | –
CNC1=NC(=O)C2(CCc3ncccc32)c2cc(OC(F)F)ccc21 (stereo not drawn) | 8 | 1.36 | 193 | 83.08 | – | – | – | – | – | –
CNC1=NC(=O)C2(CCc3cccc(F)c32)c2nc(C(F)(F)F)ccc21 (stereo not drawn) | 24 | – | 225 | 71.66 | – | – | – | – | – | –
CNC1=NC(=O)C2(CCCc3ccccc32)c2nc(C(F)(F)F)ccc21 (stereo not drawn) | 12 | – | 57 | 74.25 | 24.1 | 193 | – | – | – | –

SMILES | IC50 [1] [nM] | logD [2] | IC50 (HCT-116 [3]) [nM] | Imax (HCT-116 [4]) [%] | CLint scaled [5] [mL/min/kg] | CLint scaled [6] [mL/min/kg] | Vdss [7] [L/kg] | half-life [8] [h] | clearance [9] [mL/min/kg] | AUC(0-inf) [10] [ng·h/mL]
CNC1=NC(=O)C2(CCc3ccc(F)cc32)c2nc(C(F)(F)F)ccc21 (stereo not drawn) | 55 | – | 23300 | 52.53 | – | – | – | – | – | –
CNC1=NC(=O)C2(CCc3c(C#N)cccc32)c2nc(C(F)(F)F)ccc21 (stereo not drawn) | 18 | – | 1100 | 76.16 | < 9.3 | 48.2 | – | – | – | –
[2H]C([2H])([2H])NC1=NC(=O)[C@]2(CCc3ncccc32)c2cc(C3CC3)ccc21 | 4 | 1.92 | 55 | 78.6 | 11.2 | 63 | 1.26 | 1.47 | 13.1 | 22000
CNC1=NC(=O)C2(CCc3ccccc32)c2nc(C(F)(F)F)ccc21 (stereo not drawn) | 7 | – | 17 | 77.71 | < 9.3 | 59 | 3.665 | 2.05 | 29.3 | 6020
CNC1=NC(=O)C2(CCc3ncccc32)c2cc(C(F)(F)C(F)(F)F)ccc21 (stereo not drawn) | 6 | 2.55 | 405 | 66.34 | – | – | – | – | – | –
[2H]C([2H])([2H])NC1=NC(=O)[C@]2(CCc3ncccc32)c2cc(C(C)(F)F)c(F)cc21 | 4 | 1.87 | 70 | 85.98 | < 9.3 | < 29.3 | 1.15 | 1.58 | 11.2 | 14200
CNC1=NC(=O)C2(CCc3ncccc32)c2nc(C(F)(F)F)ccc21 (stereo not drawn) | 9 | – | 149 | 87.63 | < 9.3 | 67 | 2.42 | 3.35 | 9.06 | 18600
CNC1=NC(=O)C2(CCc3ncccc32)c2cc(C3CC3)ccc21 (stereo not drawn) | 6 | 1.92 | 66 | 97.11 | 12.3 | 85.7 | – | – | – | –
CNC1=NC(=O)C2(CCc3c(F)cccc32)c2nc(C(F)(F)F)ccc21 (stereo not drawn) | 11 | – | 105 | 86.45 | 13.4 | 118 | – | – | – | –
O=C1N=C(NC2CC2)c2ccc(C(F)(F)F)cc2C12CCc1ncccc12 (racemic) | 4 | 2.77 | 146 | 71.61 | – | – | – | – | – | –
O=C1N=C(NC2CC(F)(F)C2)c2ccc(C(F)(F)F)cc2C12CCc1ncccc12 (racemic) | 5 | 2.88 | 283 | 77.73 | – | – | – | – | – | –
COc1cc(NC2=NC(=O)C3(CCc4ncccc43)c3cc(C(F)(F)F)ccc32)ccn1 (racemic) | 12 | 3.29 | 180 | 56.22 | – | – | – | – | – | –
O=C1N=C(NCC(F)(F)F)c2ccc(C(F)(F)F)cc2C12CCc1ncccc12 (racemic) | 10 | 2.73 | 263 | 101.9 | < 9.3 | < 29.3 | – | – | – | –
O=C1N=C(NC2COC2)c2ccc(C(F)(F)F)cc2C12CCc1ncccc12 (racemic) | > 3000 | 1.57 | – | – | – | – | – | – | – | –
CN(C)C1=NC(=O)C2(CCc3ncccc32)c2cc(C(F)(F)F)ccc21 (racemic) | 19 | 2.24 | 119 | 79.25 | – | – | – | – | – | –
CNc1nc(=O)n(-c2ccccc2Cl)c2nc(C(F)(F)F)ccc12 (single isomer, unassigned; atropisomer 1) | 3 | – | – | – | – | – | – | – | – | –
CNc1nc(=O)n(-c2ccccc2Cl)c2nc(C(F)(F)F)ccc12 (single isomer, unassigned; atropisomer 2) | 86 | – | – | – | – | – | – | – | – | –
Nc1nc(=O)n(-c2ccccc2Cl)c2nc(C(F)(F)F)ccc12 (single isomer, unassigned; atropisomer A) | 3 | – | – | – | – | – | – | – | – | –
